Measurements reported in patent US6562854B2, “Compositions comprising a substituted benzimidazole useful for treating immunomediated inflammatory disorders” (Axys Pharmaceuticals, Inc., priority 1994, dated 2003).

Assays:
antigen challenged sheep = test: Sheep Model of Asthma (allergic sheep, antigen challenge); format: in vivo
Excerpt: The allergic sheep model of asthma was employed for the in vivo evaluation of the compounds of the invention as antiasthmatics. These methods have been published previously (see Abraham et al. (1983) Am. Rev. Respir. Dis. 128:839-844; Allegra et al. (1983) J. Appl. Physiol. 55:726-730; Russi et al. (1985) J. Appl. Physiol. 59:1416-1422; Soler et al. ((1989) J. Appl. Physiol. 67:406-413. Each sheep serves as its own control. Body weights for these animals ranged from 20-50 kilograms.
In these studies, 1 mg of Compound 13 was dissolved in 3 mL distilled water, and the total solution delivered as an aerosol 0.5 hours before, 4 hours after, and 24 hours after antigen challenge (total dose=1 mg; n=3).
Twenty-four hours after antigen challenge in both the control and drug trial, the sheep developed airway hyper-responsiveness. Airway hyper-responsiveness is expressed as PC400, the concentration of carbachol that causes a 400% increase in SRL; therefore, a decrease in PC400 indicates hyper-responsiveness. […] The number of breath units fell to 7 for those animals in the control group.

[1] = system: tryptase purified from human lung or skin tissue preparations or human mast cell line (HMC-1); test: In vitro Tryptase Inhibition Assay; format: biochemical; conditions: substrate tosyl-Gly-Pro-Lys-p-nitroanilide; Tris-HCl pH 8.2; zinc chloride 150 μM; 1 hour preincubation at room temperature; read-out: Ki (apparent inhibition constant, tryptase inhibitory activity)
Experimental: Tryptase solution ([…]) was prepared by dissolving tryptase purified from human lung or skin tissue preparations or human mast cell line (HMC-1) or obtained from commercial sources, e.g., ICN Biomeidals, Irvine, Calif., Athens Research & Technology, Athens, Ga., etc., in a solvent mixture comprising: 10 mM 2-N-morpholinoethane sulfonic acid, 2 mM CaCl2, 20% glycerol and 50 µg/mL heparin. Substrate solution containing 2 mM synthetic tripeptide (tosyl-Gly-Pro-Lys-p-nitroanilide) was obtained from Sigma. Test Compound solutions were prepared by diluting a stock solution (1 mg of test Compound in 200 μL of dimethylsulfoxide (DMSO)) by ten-fold into assay buffer (comprising: Tris-HCl (pH 8.2), 50 mM; NaCl, 100 MM; 0.05% polyoxyethylenesorbitan monolaurate (Tween-20®); and zinc chloride, 150 μM) and then making seven additional three-fold dilutions into 10% DMSO in assay buffer.
Aliquots (50 μL) from each of the eight dilutions of test compound solution were added to separate wells in a 96-well U-bottom microtiter plate. Typtase solution (25 μL) was added to each well and the solutions were mixed 1 hour at room temperature. Substrate solution (25 μL) was added to initiate the enzymatic reaction and the microtiter plates were immediately transferred to a UVIMAX Kinetic Microplate Reader (Molecular Devices). The hydrolysis of the chromogenic substrate was followed spectrophotometrically at 405 nanometers for five minutes. Initial velocity measurements were calculated from the progress curves by kinetic analysis program (BatchKi; Petr Kuzmic, University of Wisconsin, Madison, Wis.). Apparent inhibition constants (K) were calculated from the enzyme progress curves using standard mathematical models.

With NCc1ccc2[nH]c(Cc3nc4cc(C(=O)NCCc5cccc6ccccc56)ccc4[nH]3)nc2c1 [Compound 13] the “PC400 (airway hyper-responsiveness; concentration of carbachol that causes a 400% increase in SRL)” value (antigen challenged sheep; 24 hours after antigen challenge, 1 mg aerosol 0.5 hours before, 4 hours after and 24 hours after challenge, n=3, baseline 15, control group fell to 7) was roughly 15 breath units, the airway function (antigen challenged sheep; antigen challenged sheep, aerosol treatment) was “significant improvement in airway function” and the “onset of airway hyper-responsiveness” value (antigen challenged sheep; antigen challenged sheep, aerosol, 24 hours after challenge) was “block the onset of hyper-responsiveness”.

CC(c1nc2c(F)cc(F)c(F)c2[nH]1)c1nc2ccc(C(=O)NCCOc3ccccc3C(=O)O)cc2n1C (stereo not drawn) [Compound 80, 2-(2-{2-[1-(4,6,7-Trifluoro-1H-benzoimidazol-2-yl)ethyl]-3-methyl-3H-benzoimidazol-5-ylcarbonylamino}ethoxy)benzoic acid] showed a Ki [1] of 10 nM.

Work on CC(c1nc2cc(NC(=N)N)ccc2[nH]1)c1nc2ccc(C(=O)NCCOc3cc(Cl)ccc3C(=O)O)cc2n1C (stereo not drawn) [Compound 251, 4-chloro-2-(2-{2-[1-(5-guanidino-1H-benzoimidazol-2-yl)ethyl]-3-methyl-3H-benzoimidazol-5-ylcarbonylamino}ethoxy)benzoic acid] yielded a Ki [1] of 0.8 nM.

In the case of CC(=N)N1CCc2[nH]c(Cc3nc4ccc(C(=O)NCCc5cccc6ccccc56)cc4n3C)nc2C1 [Compound 115, 2-[5-(1-iminoethyl)-4,5,6,7-tetrahydro-1H-imidazo[4,5-c]pyridin-2-ylmethyl]-3-methyl-N-(2-naphth-1-ylethyl)-3H-benzoimidazole-5-carboxamide], the Ki [1] is reported as 3 nM.

CC(c1nc2cc(NC(=N)N)ccc2[nH]1)c1nc2ccc(C(=O)NCCOc3ccc(Cl)cc3C(=O)O)cc2n1C (stereo not drawn) [Compound 252, 5-chloro-2-(2-{2-[1-(5-guanidino-1H-benzoimidazol-2-yl)ethyl]-3-methyl-3H-benzoimidazol-5-ylcarbonylamino}ethoxy)benzoic acid] was tested, and the Ki [1] was 0.4 nM.

N=C(N)Nc1ccc2[nH]c(Cc3nc4ccc(C(=O)NCCc5cccc6ccccc56)cc4n3CCO)nc2c1 [Compound 152, 2-(5-guanidino-1H-benzoimidazol-2-ylmethyl)-3-(2-hydroxy)ethyl-N-(2-naphth-1-ylethyl)-3H-benzoimidazole-5-carboxamide] gave a Ki [1] of 0.5 nM.

For CC(=N)N1CCc2[nH]c(C(C)c3nc4ccc(C(=O)NCCOc5ccccc5C(=O)O)cc4n3C)nc2C1 (stereo not drawn) [Compound 74, 2-[2-(2-{1-[5-(1-iminoethyl)-4,5,6,7-tetrahydro-1H-imidazo[4,5-c]pyridin-2-yl]ethyl}-3-methyl-3H-benzoimidazol-5-ylcarbonylamino)ethoxy]benzoic acid], the Ki [1] was 6 nM.

Work on COCCn1c(C(C)c2nc3c([nH]2)CCN(C(C)=N)C3)nc2ccc(C(=O)NCCOc3ccccc3C(=O)O)cc21 (stereo not drawn) [Compound 194, 2-[2-(2-{1-[5-(1-iminoethyl)-4,5,6,7-tetrahydro-1H-imidazo [4,5-c]pyridin-2-yl]ethyl)-3-(2-methoxyethyl)-3H-benzoimidazol-5-ylcarbonylamino)ethoxy]benzoic acid] yielded a Ki [1] of 9 nM.

Cn1c(Cc2nc3c([nH]2)CCN(C=N)C3)nc2ccc(C(=O)NCCc3cccc4ccccc34)cc21 [Compound 117, 2-(5-iminomethyl-4,5,6,7-tetrahydro-1H-imidazo[4,5-c]pyridin-2-ylmethyl)-3-methyl-N-(2-naphth-1-ylethyl)-3H-benzoimidazole-5-carboxamide] was tested, and the Ki [1] was 8 nM.

CCOC(=O)c1ccccc1OCCNC(=O)c1ccc2nc(C(C)c3nc4cc(OC(=O)OC)ccc4n3C(=O)C(C)C)n(C)c2c1 (stereo not drawn) [Compound 84, Ethyl 2-(2-{2-[1-(1-isobutyryl-5-methoxycarbonyloxy-1H-benzoimidazol-2-yl)ethyl]-3-methyl-3H-benzoimidazol-5-ylcarbonylamino}ethoxy)benzoate] was tested, and the Ki [1] was 2600 nM.

“2-(5-Guanidino-1H-benzoimidazol-2-ylmethyl)-N-(2-naphthalen-1-ylethyl)-3-methyl-3H-benzoimidazole-5-carboxyamide [Compound 28]” gave a Ki [1] of 0.07 nM.

In the case of N=C(N)Nc1ccc2[nH]c(Cc3nc4ccc(C(=O)NCCc5cccc6ccccc56)cc4n3CCCO)nc2c1 [Compound 138, 2-(5-guanidino-1H-benzoimidazol-2-ylmethyl)-3-(3-hydroxy)propyl-N-(2-naphth-1-ylethyl)-3H-benzoimidazole-5-carboxamide], the Ki [1] is reported as 0.2 nM.

CCOC(=O)c1ccccc1OCCNC(=O)c1ccc2nc(C(C)c3nc4c(F)cc(F)c(F)c4[nH]3)n(C)c2c1 (stereo not drawn) [Compound 75, ethyl 2-(2-{2-[1-(4,6,7-trifluoro-1H-benzoimidazol-2-yl)ethyl]-3-methyl-3H-benzoimidazol-5-carbonylamino}ethoxy}benzoate] showed a Ki [1] of 30 nM.

Work on Cn1c(Cc2nc3cc(CN)ccc3[nH]2)nc2ccc(C(=O)NCCc3cccc4ccccc34)cc21 [Compound 102, 2-(5-aminomethyl-1H-benzoimidazol-2-ylmethyl)-3-methyl-N-(2-naphth-1-ylethyl)-3H-benzoimidazole-5-carboxamide] yielded a Ki [1] of 0.07 nM.

Work on CCCCOC(=O)c1ccccc1OCCNC(=O)c1ccc2nc(C(C)c3nc4cc(O)ccc4[nH]3)n(C)c2c1 (stereo not drawn) [Compound 37, butyl 2-(2-{2-[l-(5-hydroxy-1H-benzoimidazol-2-yl)ethyl]-3-methyl-3H-benzoimidazol-5-ylcarbonylamino}ethoxy)benzoate] yielded a Ki [1] of 2 nM.

Work on COc1ccccc1OCCNC(=O)c1ccc2nc(C(C)c3nc4cc(O)ccc4[nH]3)n(C)c2c1 (stereo not drawn) [Compound 30, 2-[1-(5-Hydroxy-1H-benzoimidazol-2-yl)ethyl]-N-[2-(2-methoxyphenoxy)ethyl]-3-methyl-3H-benzoimidazole-5-carboxamide] yielded a Ki [1] of 9 nM.
